Data set [1] has as its target DNA-dependent protein kinase catalytic subunit (Homo sapiens, UniProt P78527). Briefly: Inhibition of human full-length DNA-PK using EPPLSQEAFADLWKK as substrate incubated for 60 mins in presence of ATP by ADP-Glo kinase assay. (In general: In ADP-Glo the light output rises with the ADP produced.)
A short description of data set [2]: Toxicity in BALB/c mouse implanted with mouse CT26 cells assessed as weight loss at 10 mg/kg, ip administered once daily for 21 days. To be noted: in vivo, 504 h, time 21 day. It counts as organism-based.
Data set [3] concerns Jurkat. Kind of data set: Antiproliferative activity against human Jurkat cells assessed as reduction in cell viability incubated for 48 hrs by CCK-8 assay. It counts as functional, cell-based.
Data set [4] can be described thus: Tmax in male Sprague-Dawley rat at 2 mg/kg, iv measured after 48 hrs by LC-MS/MS analysis. The class given is ADME, organism-based. To be noted: in vivo.
Data set [5] can be described thus: Toxicity in C57BL/6 mouse implanted with mouse B16-F10 cells assessed as change in heart histopathology at 10 mg/kg, ip administered once daily for 13 days by H&E staining based analysis. It counts as organism-based. The note with it: in vivo, 312 h, time 13 day.
For data set [6], the system named is CT26. Briefly: Antitumor activity against mouse CT26 cells implanted in BALB/c mouse assessed as reduction in tumor weight by measuring tumor growth inhibition at 10 mg/kg, ip QD co-administered with doxorubicin for 21 days relative to control. It counts as functional. To be noted: CT26, 504 h, time 21 day, read-out: TGI.
Data set [7] has as its system B16-F10. Briefly: Immunomodulatory activity in mouse B16-F10 cells implanted in C57BL/6 mouse assessed as percentage of CD3 positive CD4 positive cells in tumor at 10 mg/kg, ip QD co-administered with SWS1 for 13 days by flow cytometric analysis (reference value: 0.86%). It counts as functional. To be noted: time 13 day. (In general: Flow cytometry measures light scatter and fluorescence of single cells or particles in a stream.)

Data set [8] relates to CT26. Briefly: Antitumor activity against mouse CT26 cells implanted in BALB/c mouse assessed as reduction in tumor volume at 10 mg/kg, ip administered once daily for 21 days relative to control. To be noted: time 21 day. It counts as functional. The arrangement: scale not given: the % may be the effect or the level left.
Data set [9] deals with Cell membrane. Briefly: Induction of mitochondrial membrane potential loss in human Jurkat cells at 1 uM incubated for 24 hrs by JC-1 staining based flow cytometric analysis. It counts as cell membranes.
Data set [10] is described as follows: Selectivity ratio of IC50 for antiproliferative activity against mouse CT26 cells to IC50 for synergistic antiproliferative activity against mouse CT26 cells in presence of doxorubicin. The class given is functional.
Data set [11] can be described thus: AUC (0 to t) in male Sprague-Dawley rat at 2 mg/kg, iv measured after 48 hrs by LC-MS/MS analysis. The note with it: in vivo. It counts as ADME, organism-based.
The next data set concerns HepG2. Briefly: Inhibition of DNA damage repair in human HepG2 cells assessed as reduction in gammaH2AX fluorescence intensity by DAPI staining based immunofluorescence analysis. The note with it: dose 10-40 µM. It counts as functional, cell-based.
A short description of data set [12]: Oral bioavailability in male Sprague-Dawley rat at 10 mg/kg measured after 48 hrs by LC-MS/MS analysis. It counts as ADME, organism-based. To be noted: in vivo.
A short description of data set [13]: C0 in male Sprague-Dawley rat at 2 mg/kg, iv measured after 48 hrs by LC-MS/MS analysis. The class given is ADME, organism-based. The note with it: in vivo.
The subject of data set [14] is Cell membrane. Briefly: Induction of mitochondrial membrane potential loss in human Jurkat cells at 1 uM incubated for 24 hrs in presence of doxorubicin by JC-1 staining based flow cytometric analysis. The class given is cell membranes.
The nature of data set [15]: Apparent volume of distribution in male Sprague-Dawley rat at 2 mg/kg, iv measured after 48 hrs by LC-MS/MS analysis. The note with it: in vivo, read-out: Vz. The class given is ADME, organism-based.
A short description of data set [16]: Toxicity in C57BL/6 mouse implanted with mouse B16-F10 cells assessed as change in kidney histopathology at 10 mg/kg, ip administered once daily for 13 days by H&E staining based analysis. The class given is organism-based. The note with it: in vivo, 312 h, time 13 day.
For data set [17], the system named is B16-F10. Kind of data set: Immunomodulatory activity in mouse B16-F10 cells implanted in C57BL/6 mouse assessed as percentage of CD3 positive CD8 positive cells in tumor at 10 mg/kg, ip QD co-administered with PD-L1 antibody for 13 days by flow cytometric analysis (reference value: 0.99%). It counts as functional. To be noted: time 13 day.
Data set [18] in a line: Toxicity in C57BL/6 mouse implanted with mouse B16-F10 cells assessed as change in liver histopathology at 10 mg/kg, ip administered once daily for 13 days by H&E staining based analysis. It counts as organism-based. To be noted: in vivo, 312 h, time 13 day.
Data set [19] has as its system Jurkat. Kind of data set: Induction of cell cycle arrest in human Jurkat cells assessed as increase in G2/M phase cells at 1 uM incubated for 24 hrs in presence of doxorubicin by PI staining based flow cytometric analysis. It counts as functional.

By IC50 is commonly meant the concentration that inhibits the measured activity by half. One may read the Tmax as the time from dosing to the highest level. One may read the AUC(0-t) as exposure summed from dosing to a finite time, without extrapolation to infinity. As usually defined, the bioavailability is dose-corrected exposure relative to a reference, in per cent.

Activity calls are given as the source filed them. No cut-off for these calls is given here.

Chain of DNA-dependent protein kinase catalytic subunit (P78527 whole entry): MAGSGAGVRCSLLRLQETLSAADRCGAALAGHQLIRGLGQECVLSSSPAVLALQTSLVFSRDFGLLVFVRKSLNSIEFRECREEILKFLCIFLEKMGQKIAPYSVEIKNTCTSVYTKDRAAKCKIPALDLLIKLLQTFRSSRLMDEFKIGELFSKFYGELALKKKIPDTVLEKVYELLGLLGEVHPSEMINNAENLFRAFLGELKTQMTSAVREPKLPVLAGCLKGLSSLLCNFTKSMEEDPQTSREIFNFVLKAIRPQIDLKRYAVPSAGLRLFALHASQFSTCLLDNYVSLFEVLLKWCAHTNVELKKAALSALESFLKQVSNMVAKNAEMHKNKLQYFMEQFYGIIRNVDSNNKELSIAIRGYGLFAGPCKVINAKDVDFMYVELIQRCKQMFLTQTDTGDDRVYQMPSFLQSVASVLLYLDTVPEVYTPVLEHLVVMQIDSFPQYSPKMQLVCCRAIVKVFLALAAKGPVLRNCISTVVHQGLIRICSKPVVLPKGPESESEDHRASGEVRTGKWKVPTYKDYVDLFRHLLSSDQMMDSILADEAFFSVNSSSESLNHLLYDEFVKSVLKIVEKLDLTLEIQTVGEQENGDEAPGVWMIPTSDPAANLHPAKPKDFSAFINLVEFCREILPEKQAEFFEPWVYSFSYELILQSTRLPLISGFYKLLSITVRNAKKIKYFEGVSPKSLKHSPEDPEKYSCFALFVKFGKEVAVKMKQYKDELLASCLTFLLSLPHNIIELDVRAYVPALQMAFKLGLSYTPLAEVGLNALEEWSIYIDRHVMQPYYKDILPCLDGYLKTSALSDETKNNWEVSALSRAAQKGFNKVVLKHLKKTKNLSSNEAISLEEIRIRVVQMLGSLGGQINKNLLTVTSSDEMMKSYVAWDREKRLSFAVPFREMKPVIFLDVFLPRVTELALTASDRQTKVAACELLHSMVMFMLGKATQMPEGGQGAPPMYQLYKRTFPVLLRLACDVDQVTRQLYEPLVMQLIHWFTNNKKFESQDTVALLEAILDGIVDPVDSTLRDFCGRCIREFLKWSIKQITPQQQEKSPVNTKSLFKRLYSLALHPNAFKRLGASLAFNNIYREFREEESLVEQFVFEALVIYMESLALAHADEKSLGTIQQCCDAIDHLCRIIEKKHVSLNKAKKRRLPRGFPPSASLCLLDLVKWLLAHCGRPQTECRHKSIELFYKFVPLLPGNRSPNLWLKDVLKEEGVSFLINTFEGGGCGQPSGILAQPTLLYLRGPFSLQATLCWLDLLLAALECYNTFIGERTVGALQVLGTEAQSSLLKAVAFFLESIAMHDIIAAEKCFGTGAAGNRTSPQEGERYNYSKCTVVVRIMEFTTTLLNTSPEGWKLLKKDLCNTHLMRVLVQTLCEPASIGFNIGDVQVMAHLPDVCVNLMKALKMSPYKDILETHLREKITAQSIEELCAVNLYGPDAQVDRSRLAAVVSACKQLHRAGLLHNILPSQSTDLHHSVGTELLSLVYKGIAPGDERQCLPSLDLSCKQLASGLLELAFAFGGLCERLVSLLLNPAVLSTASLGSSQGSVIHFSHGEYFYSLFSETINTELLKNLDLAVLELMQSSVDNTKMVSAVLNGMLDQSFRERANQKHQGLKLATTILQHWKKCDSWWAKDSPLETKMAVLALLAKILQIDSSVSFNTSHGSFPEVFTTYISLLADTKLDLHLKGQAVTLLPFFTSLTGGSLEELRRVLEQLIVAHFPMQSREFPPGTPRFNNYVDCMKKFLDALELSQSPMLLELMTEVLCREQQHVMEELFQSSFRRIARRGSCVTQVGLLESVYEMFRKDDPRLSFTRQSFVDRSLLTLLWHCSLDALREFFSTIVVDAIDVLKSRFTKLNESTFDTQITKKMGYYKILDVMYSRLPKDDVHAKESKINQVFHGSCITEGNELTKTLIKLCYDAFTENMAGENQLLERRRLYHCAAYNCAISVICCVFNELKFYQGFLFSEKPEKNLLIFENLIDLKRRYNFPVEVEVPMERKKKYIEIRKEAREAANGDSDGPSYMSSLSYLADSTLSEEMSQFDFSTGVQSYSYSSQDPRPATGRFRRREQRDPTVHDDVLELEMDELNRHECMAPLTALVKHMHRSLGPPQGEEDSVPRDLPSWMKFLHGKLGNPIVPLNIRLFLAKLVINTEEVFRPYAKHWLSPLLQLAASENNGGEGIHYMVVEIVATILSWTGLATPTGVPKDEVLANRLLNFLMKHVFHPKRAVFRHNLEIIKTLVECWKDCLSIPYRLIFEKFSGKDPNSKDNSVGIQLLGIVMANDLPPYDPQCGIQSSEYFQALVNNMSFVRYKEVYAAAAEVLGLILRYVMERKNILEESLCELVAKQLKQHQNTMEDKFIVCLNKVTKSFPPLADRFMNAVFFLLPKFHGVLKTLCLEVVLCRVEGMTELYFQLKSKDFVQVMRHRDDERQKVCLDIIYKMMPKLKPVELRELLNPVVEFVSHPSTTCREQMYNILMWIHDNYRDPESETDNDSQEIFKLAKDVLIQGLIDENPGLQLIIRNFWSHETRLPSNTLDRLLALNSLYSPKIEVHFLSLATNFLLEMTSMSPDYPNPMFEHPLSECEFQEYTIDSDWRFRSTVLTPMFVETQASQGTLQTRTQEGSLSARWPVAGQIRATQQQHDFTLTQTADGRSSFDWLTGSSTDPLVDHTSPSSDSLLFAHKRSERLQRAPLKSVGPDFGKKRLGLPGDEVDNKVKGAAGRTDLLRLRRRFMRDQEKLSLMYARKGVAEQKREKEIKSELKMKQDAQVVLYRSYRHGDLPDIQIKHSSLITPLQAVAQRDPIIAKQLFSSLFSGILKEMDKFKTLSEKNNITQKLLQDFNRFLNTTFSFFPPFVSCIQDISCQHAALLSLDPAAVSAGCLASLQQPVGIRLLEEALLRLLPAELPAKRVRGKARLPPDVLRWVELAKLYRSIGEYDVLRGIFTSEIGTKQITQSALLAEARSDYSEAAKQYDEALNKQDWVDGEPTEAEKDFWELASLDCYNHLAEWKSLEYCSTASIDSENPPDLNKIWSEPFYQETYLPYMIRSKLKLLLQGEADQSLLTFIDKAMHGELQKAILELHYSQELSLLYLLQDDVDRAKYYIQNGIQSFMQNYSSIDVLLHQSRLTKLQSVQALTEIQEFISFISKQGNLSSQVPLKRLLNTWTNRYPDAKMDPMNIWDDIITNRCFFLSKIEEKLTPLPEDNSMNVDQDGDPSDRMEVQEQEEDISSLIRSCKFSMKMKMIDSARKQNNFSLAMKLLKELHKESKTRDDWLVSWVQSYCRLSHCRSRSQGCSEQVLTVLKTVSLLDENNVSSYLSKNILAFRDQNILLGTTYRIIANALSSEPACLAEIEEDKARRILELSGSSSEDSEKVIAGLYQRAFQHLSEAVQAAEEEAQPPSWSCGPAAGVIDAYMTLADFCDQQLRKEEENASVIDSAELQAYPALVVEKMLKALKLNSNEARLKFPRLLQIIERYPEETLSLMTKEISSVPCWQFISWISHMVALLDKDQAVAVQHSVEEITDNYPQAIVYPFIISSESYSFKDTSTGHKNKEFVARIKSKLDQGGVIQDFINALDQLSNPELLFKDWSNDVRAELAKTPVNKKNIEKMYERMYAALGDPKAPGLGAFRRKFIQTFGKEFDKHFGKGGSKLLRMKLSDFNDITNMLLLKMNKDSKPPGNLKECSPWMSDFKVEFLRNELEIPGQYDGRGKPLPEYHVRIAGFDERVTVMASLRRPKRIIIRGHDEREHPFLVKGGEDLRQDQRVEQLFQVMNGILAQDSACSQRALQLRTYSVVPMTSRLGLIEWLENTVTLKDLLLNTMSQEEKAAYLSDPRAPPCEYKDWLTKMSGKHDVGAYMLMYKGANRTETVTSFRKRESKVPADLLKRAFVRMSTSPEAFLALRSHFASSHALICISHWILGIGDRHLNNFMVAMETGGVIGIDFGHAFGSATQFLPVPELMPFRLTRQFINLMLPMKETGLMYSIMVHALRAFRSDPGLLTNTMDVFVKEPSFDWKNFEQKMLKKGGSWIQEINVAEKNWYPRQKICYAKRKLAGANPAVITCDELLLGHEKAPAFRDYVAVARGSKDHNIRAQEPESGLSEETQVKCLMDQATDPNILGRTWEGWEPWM

As to `Cc1cc2cccnc2cc1Nc1ncc2c(n1)N(C1CCOCC1)Cc1nncn1-2`, the values for the concentration for half-maximal inhibition (IC50) (in [1]; in the data set with Jurkat [3]) were 0.11 nM and 600 nM, respectively. For the same molecule, the Activity entry in data set [2] was “Non-Toxic”; in data set [5], “Non-Toxic”; with B16-F10 [7] it was 4.02%; with CT26 [8], 32.1%; in [16] it was “Non-Toxic”; with B16-F10 [17] it was 5.17%. For the same molecule, the Activity result in data set [18] is “Non-Toxic”. Further, the Tmax in data set [4] was 4.98 min. Further, the inhibition in vivo at 10 mg/kg with CT26 [6] was 50.2%. In the data set on Cell membrane [9], the outcome was inactive. Further, the “Ratio IC50” value in data set [10] is recorded as 4.5. The same molecule had an AUC(0-t) at 48 h in data set [11] of 604 ng·h/mL. In addition, the inhibition entry in the data set on HepG2 was “Dose-Dependent Effect”. The molecule further showed a bioavailability in [12] of 31.8%. Besides, the C0 at 48 h in data set [13] is 1000 ng/mL. Besides, the outcome in the data set on Cell membrane [14] and in the data set on Jurkat [19] was Active. Further, in data set [15], the Vd came out at 4.7 L/kg.

Source of the values: ChEMBL document CHEMBL5543136, “Discovery of Novel Heterotricyclic Compounds as DNA-Dependent Protein Kinase (DNA-PK) Inhibitors with Enhanced Chemosensitivity, Oral Bioavailability, and the Ability to Potentiate Cancer Immunotherapy” (J Med Chem, 2024).
